This is an account of results in publication PMC7822176, “Pursuing the Complexity of Alzheimer’s Disease: Discovery of Fluoren-9-Amines as Selective Butyrylcholinesterase Inhibitors and N-Methyl-D-Aspartate Receptor Antagonists” (Biomolecules, 2020).

Where two headings read alike, the source gives them in different places.

Series [1] in a line: MTT cell viability assay, CHO-K1. The class given is cell-based. The conditions noted are these: Chinese hamster, CHO-K1 cells, 24 h exposure, mean of three independent measurements, read-out: IC50 ± SEM CHO-K1 cell viability. The protocol:
(§1) Standard MTT assay (3-(4,5-dimethylthiazol-2-yl)-2,5-diphenyltetrazolium bromide; Sigma Aldrich, Prague, Czech Republic) was used according to the manufacturer’s protocols on the CHO-K1 (Chinese hamster ovary, ECACC, Salisbury, UK) and hCMEC/D3 (Sigma Aldrich, St. Louis, MO, USA). The cells were cultured according to recommended conditions and seeded in a density of 8000 cells per well, as described previously. […] CHO-K1 cells were exposed to serially diluted tested compounds for 24 h. Then, the medium was replaced by a fresh medium containing 0.5 mg/mL of MTT, and the cells were allowed to produce formazan for another approximately 3 h under surveillance. Thereafter, the medium with MTT was removed, and crystals of formazan were dissolved in DMSO (100 µL/well; PENTA s.r.o., Prague, Czech Republic). Cell viability was assessed spectrophotometrically by the amount of formazan produced. The absorbance was measured at 570 nm with a 650-nm reference wavelength on Synergy HT (BioTek, Winooski, VT, USA). The IC50 value (half-maximal inhibitory concentration) was calculated from the control-subtracted triplicates using nonlinear regression (four parameters) by GraphPad Prism 7.03 software (GraphPad Software Inc., San Diego, CA, USA) for the CHO-K1 cell line, and for hCMEC/D3 cells, the cell viability was expressed as the % relative to the untreated control. Final IC50 and SEM (standard error of the mean) values were obtained as a mean of three independent measurements.

The test system of series [2] is hCMEC/D3 cell monolayer. Kind of series: in vitro. The conditions noted are these: for potential of BBB permeation (in words): Papp correlated to reference drugs. As to the method:
(§2) The D3 assay evaluates the ability of compounds to diffuse from the donor compartment through the D3/hCMEC cell membrane into the acceptor compartment. The D3 cells were seeded on a PET membrane (area 1.12 cm^2) with 3-µm pores of the 12-well plates with 12-mm inserts. […] The donor solution (750 µL) was added to the donor compartment (insert), and the same volume of Opti-MEM was added into the acceptor. The concentration of the drug in both compartments was measured by UV-VIS spectrophotometry in 5, 15, 30, and 60 min of incubation in triplicates. The apparent permeability coefficient (Papp) was calculated from the concentration ratios. Tightness of the D3 monolayer was conducted by the fluorescein isothiocyanate (FITC) test after each experiment. […] (1) Papp= dC/dt × Vr/A × C0 • A: area of the well/cell monolayer, • dC/dt: amount in the receiver compartment in given time, • Vr: volume of the receiver compartment, and • C0: the initial concentration of tested compounds.

Series [3] can be described thus: in vitro. The conditions noted are these: human. The protocol:
as §2

Series [4] concerns the target T1, GluN1/GluN2B receptors (Homo sapiens, UniProt Q05586+Q13224).
T1 construct: expressed in transfected cells; host or cells: HEK293
Kind of series: cell-based. The conditions noted are these: for inhibition at 10 µM: HEK293, read-out: RI (%) ± SEM GluN1/GluN2B. As to the method: (§3) The cells grown in a 24-well plate were put in Opti-MEM I media containing a mixture of 0.9 µL of MATra-A Reagent (IBA) and 900 ng of DNA vectors carrying the human versions of the GluN1-1a (GluN1), GluN2A, or GluN2B subunits and green fluorescent protein (GFP; all vectors were added in equal ratio). The cells were placed on a strong magnet plate for 30 min and then trypsinized; resuspended in Opti-MEM I containing 1% FBS, 20-mM MgCl2, and 3-mM kynurenic acid (to inhibit the NMDAR-induced excitotoxicity); and plated on poly-L-lysine-coated glass coverslips. The electrophysiological experiments were executed 24–48 h after transfection.
(§4) Whole-cell patch-clamp recordings were conducted at room temperature on the GFP-positive HEK293 cells using an Axopatch 200B amplifier (Molecular Devices, San Jose, CA, USA); the series resistance compensation was >80% for all cells. […] The WAS02 application system, which can reach the solution exchange time around the recorded cell of 10–20 ms, was used to apply the extracellular solution (ECS).

The target of series [5] is T2, GluN1/GluN2A receptors (Homo sapiens, UniProt Q05586+Q12879).
T2 construct: expressed in transfected cells; host or cells: HEK293
T2 sequence (Q12879 23-1464, other chains not shown): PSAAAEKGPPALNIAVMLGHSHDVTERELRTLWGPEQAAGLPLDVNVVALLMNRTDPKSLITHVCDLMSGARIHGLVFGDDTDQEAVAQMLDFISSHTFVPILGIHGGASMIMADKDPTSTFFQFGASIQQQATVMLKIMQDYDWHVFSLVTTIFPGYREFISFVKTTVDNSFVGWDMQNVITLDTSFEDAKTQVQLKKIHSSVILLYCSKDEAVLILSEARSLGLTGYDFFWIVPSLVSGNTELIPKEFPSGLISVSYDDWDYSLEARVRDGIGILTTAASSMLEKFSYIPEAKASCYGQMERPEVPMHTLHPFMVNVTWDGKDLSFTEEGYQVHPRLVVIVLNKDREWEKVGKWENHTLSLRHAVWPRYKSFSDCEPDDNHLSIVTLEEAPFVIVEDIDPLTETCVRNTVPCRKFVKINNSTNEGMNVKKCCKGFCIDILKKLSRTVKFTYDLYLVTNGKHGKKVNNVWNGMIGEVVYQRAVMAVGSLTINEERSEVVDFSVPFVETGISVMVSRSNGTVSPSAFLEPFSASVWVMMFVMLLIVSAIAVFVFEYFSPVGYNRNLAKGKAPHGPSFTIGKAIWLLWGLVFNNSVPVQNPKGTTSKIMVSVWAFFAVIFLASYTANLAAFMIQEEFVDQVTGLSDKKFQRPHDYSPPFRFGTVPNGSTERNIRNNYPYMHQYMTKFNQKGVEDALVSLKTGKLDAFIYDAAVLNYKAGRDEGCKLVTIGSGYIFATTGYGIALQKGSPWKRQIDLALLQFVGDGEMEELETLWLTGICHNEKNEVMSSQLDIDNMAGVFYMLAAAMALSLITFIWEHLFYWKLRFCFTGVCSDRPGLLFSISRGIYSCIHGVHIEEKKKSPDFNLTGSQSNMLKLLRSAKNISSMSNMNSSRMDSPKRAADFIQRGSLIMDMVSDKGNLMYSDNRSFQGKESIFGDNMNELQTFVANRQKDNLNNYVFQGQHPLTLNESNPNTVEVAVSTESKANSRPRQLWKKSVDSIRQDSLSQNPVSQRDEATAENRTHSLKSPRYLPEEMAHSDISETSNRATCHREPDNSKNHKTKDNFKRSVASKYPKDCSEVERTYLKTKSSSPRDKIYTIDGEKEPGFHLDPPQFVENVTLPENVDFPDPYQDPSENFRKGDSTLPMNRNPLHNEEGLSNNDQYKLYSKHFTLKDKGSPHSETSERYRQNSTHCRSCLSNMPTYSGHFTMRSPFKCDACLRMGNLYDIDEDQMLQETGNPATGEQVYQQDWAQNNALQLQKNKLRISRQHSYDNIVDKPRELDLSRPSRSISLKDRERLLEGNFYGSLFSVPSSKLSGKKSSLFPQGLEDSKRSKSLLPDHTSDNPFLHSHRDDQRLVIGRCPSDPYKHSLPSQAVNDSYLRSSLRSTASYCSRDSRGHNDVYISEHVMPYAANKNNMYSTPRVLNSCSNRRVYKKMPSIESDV
Kind of series: cell-based. The conditions noted are these: for inhibition at 10 µM: HEK293, read-out: RI (%) ± SEM GluN1/GluN2A. As to the method:
as §3, §4

In series [6] the target is T3, hBChE (Homo sapiens, UniProt P06276).
T3 construct: made in house
T3 sequence (P06276 29-602): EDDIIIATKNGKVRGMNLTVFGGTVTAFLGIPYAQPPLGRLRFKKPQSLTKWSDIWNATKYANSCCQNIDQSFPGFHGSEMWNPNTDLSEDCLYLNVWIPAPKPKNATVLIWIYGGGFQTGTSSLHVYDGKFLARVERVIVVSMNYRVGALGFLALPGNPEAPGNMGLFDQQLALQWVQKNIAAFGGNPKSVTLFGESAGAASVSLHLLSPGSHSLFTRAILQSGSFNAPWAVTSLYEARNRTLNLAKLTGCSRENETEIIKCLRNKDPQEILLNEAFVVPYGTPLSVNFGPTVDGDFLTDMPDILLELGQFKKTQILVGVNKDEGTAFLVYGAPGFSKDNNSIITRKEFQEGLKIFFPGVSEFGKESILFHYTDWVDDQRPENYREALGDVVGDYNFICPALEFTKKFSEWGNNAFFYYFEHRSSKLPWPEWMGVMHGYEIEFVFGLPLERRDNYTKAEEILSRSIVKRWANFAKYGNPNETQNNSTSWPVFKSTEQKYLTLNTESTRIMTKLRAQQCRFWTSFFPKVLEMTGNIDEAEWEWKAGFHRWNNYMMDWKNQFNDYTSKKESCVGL
Nature of the series: biochemical. Type of series: biochemical. The conditions noted are these: for IC50: mean of at least three experiments, read-out: IC50 ± SEM hBChE. The protocol:
The human recombinant BChE and AChE were prepared at the Department of Toxicology and Military Pharmacy (Faculty of Military Health Sciences, Hradec Kralove, Czech Republic). 5,5′-dithiobis(2-nitrobenzoic acid) (Ellman’s reagent, DTNB), phosphate buffer (PB, pH 7.4), acetylthiocholine (ATC), and butyrylthiocholine (BTC) were purchased from Sigma-Aldrich, Prague, Czech Republic. For measuring purposes, polystyrene Nunc 96-well microplates with a flat bottom shape (Thermo Fisher Scientific, Waltham, MA, USA) were utilized. All the assays were carried out in 0.1-M KH2PO4/K2HPO4 buffer, pH 7.4. Enzyme solutions were prepared at 2.0 units/mL in 2-mL aliquots. […] Tested compounds were preincubated for 5 min. The reaction was started by the immediate addition of 20 µL of the substrate. […] Each concentration was assayed in triplicate. Software GraphPad Prism 5 (San Diego, CA, USA) was used for the statistical data evaluation.

Series [7] is described as follows: MTT cell viability test, hCMEC/D3. The conditions noted are these: human, read-out: % viable cells hCMEC/D3. Type of series: cell-based. As to the method: as §1, with “The IC50 value (half-maximal inhibitory concentration) was calculated from the control-subtracted triplicates using nonlinear regression (four parameters) by GraphPad Prism 7.03 software (GraphPad Software Inc., San Diego, CA, USA) for the CHO-K1 cell line, and for hCMEC/D3 cells, the cell viability was expressed as the % relative to the untreated control.” left out

For series [8], the target named is NMDA receptor. The conditions noted are these: read-out: IC50 inhibition of NMDA receptor responses; at −60 mV; cited from earlier work.
The target in series [9] is T3, hBChE. Nature of the series: Kinetic study of hBChE inhibition. The class given is biochemical. The protocol:
The kinetic study of hBChE was performed by using the above-mentioned modified Ellman’s method. The values of Vmax and Km of the Michaelis-Menten kinetics, as well as the value of Ki, were calculated by nonlinear regression from the substrate velocity curves. Linear regression was used for calculation of the Cornish-Bowden plots. All calculations were performed using GraphPad Prism software version 6.07 for Windows (San Diego, CA, USA).

[10] abbreviates: final prediction from Papp correlated to reference drugs.
Setting [11] is: 40 mV, read-out: IC50 40 mV GluN1/GluN2B.
[12] abbreviates: −60 mV, read-out: IC50 −60 mV GluN1/GluN2B.
Setting [13] is: 40 mV, read-out: IC50 40 mV GluN1/GluN2A.
[14] abbreviates: −60 mV, read-out: IC50 −60 mV GluN1/GluN2A.

T1 sequence (Q13224 27-1484, other chains not shown): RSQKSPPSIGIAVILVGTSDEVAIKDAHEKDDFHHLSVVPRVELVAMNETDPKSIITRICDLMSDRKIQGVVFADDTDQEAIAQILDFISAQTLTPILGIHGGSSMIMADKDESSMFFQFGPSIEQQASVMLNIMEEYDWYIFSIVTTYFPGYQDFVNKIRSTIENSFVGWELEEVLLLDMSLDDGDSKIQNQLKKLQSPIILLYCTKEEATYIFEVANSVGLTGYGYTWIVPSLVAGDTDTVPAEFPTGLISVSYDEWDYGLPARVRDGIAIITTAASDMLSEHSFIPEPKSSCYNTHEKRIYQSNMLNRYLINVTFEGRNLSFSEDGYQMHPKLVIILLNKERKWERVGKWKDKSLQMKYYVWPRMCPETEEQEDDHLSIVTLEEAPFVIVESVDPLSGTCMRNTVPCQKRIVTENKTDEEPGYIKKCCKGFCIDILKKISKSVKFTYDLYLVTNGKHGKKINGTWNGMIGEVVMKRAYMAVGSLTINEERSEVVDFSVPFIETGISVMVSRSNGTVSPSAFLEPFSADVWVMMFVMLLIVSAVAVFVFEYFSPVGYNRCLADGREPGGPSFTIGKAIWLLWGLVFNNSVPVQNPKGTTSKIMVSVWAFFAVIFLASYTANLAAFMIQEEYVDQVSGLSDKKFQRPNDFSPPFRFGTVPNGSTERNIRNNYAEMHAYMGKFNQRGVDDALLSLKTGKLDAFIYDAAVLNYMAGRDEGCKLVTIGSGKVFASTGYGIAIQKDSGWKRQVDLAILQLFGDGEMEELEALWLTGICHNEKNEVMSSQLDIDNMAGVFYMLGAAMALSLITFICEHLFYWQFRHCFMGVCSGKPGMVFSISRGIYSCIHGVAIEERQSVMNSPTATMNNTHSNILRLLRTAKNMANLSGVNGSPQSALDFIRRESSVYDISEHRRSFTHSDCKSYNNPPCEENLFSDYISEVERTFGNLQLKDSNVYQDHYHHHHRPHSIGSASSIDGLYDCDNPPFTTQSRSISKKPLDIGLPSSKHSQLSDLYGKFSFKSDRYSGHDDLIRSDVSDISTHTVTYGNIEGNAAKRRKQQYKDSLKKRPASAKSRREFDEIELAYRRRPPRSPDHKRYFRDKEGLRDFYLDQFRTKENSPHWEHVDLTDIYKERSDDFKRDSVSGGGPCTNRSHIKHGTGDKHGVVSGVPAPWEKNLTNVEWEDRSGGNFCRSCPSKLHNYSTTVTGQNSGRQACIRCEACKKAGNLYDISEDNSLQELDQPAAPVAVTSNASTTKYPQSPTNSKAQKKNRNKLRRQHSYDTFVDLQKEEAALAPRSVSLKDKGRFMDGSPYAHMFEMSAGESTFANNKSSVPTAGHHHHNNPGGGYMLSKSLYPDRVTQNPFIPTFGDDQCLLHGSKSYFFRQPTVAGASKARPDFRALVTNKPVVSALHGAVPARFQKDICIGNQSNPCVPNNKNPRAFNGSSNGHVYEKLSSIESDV

In general, Papp refers to the rate of passage across a membrane or cell layer, normalised by area and donor concentration. Turning to `Cl.c1ccc2c(c1)-c1ccccc1C2NC1CCC1` [Compound 3e, N-Cyclobutyl-9H-fluoren-9-amine hydrochloride], the IC50 at 24 h in [1] was 192 ± 3 µM. For the same molecule, the “potential of BBB permeation (in words)” value in series [2] is listed as “low potential to passively pass the BBB”. Also, the “CNS (+/−)” value in series [2] (setting [10]) is “CNS −”. The same molecule came in with an apparent permeability (Papp) in [3] of 13.5 ± 1.54 ×10⁻⁶ cm/s. Moreover, the “h 40 mV GluN1/GluN2B (Hill coefficient)” value in series [4] (40 mV) worked out at 1.10 ± 0.08. Moreover, the IC50 in [4] (setting [11]) was found to be 156 ± 14.9 µM; in [4] (setting [12]) it was 15.3 ± 2.38 µM; in series [5] (setting [13]), 82.6 ± 14.2 µM; in [5] (setting [14]), 8.85 ± 1.21 µM; in series [6], 2.03 ± 0.08 µM. The inhibition at 10 µM in series [4] amounted to 44.8 ± 3.43%; in series [5] it was 52.3 ± 4.18%. Moreover, the “h −60 mV GluN1/GluN2B (Hill coefficient)” value in series [4] (−60 mV) is 1.17 ± 0.05. For the same molecule, in [5] (40 mV), the “h 40 mV GluN1/GluN2A (Hill coefficient)” value is reported as 1.28 ± 0.12. Also, the “h −60 mV GluN1/GluN2A (Hill coefficient)” value in series [5] (−60 mV) is recorded as 1.07 ± 0.05. Also, in series [7] (hCMEC/D3 cells), the viability at 50 µM came out at 92.8%. For the same molecule, in series [7] (hCMEC/D3 cells), the viability at 100 µM was determined as 92.3%.

For `Nc1c2c(nc3ccccc13)CCCC2` [THA, Tacrine, reference compound], the “CNS (+/−)” value in [2] is “CNS +”. The molecule further displayed a Papp in series [3] of 22.3 ± 2.01 ×10⁻⁶ cm/s. The IC50 in series [8] was 20 µM. In series [7], the viability at 50 µM is 91.1% and the viability at 100 µM was found to be 94.5%.

Consider `CCCCNC1c2ccccc2-c2ccccc21.Cl` [Compound 3m, N-Butyl-9H-fluoren-9-amine hydrochloride], for which the IC50 at 24 h in series [1] was found to be 140 ± 15 µM. In addition, the “potential of BBB permeation (in words)” value in [2] is recorded as “corresponds to those of standard drugs with high CNS permeability”. Besides, the “CNS (+/−)” value in series [2] (setting [10]) is “CNS +”. The molecule further gave an apparent permeability coefficient (Papp) in [3] of 18.5 ± 2.37 ×10⁻⁶ cm/s. In addition, the “h 40 mV GluN1/GluN2B (Hill coefficient)” value in series [4] (40 mV) turned out to be 0.97 ± 0.10. Besides, the IC50 in series [4] (setting [11]) is 221 ± 12.2 µM; in series [4] (setting [12]) it was 11.7 ± 1.72 µM; in [5] (setting [13]), 114 ± 26.6 µM; in [5] (setting [14]), 14.2 ± 1.6 µM; in series [6], 1.02 ± 0.03 µM. Moreover, the figures for the inhibition at 10 µM in [4] and in [5] were 51.2 ± 3.24% and 36.2 ± 3.73%, respectively. In addition, the “h −60 mV GluN1/GluN2B (Hill coefficient)” value in [4] (−60 mV) amounted to 1.12 ± 0.05. In addition, in [5] (40 mV), the “h 40 mV GluN1/GluN2A (Hill coefficient)” value was 1.23 ± 0.13. Besides, the “h −60 mV GluN1/GluN2A (Hill coefficient)” value in series [5] (−60 mV) is 1.19 ± 0.14. Further, the viability at 50 µM in series [7] (hCMEC/D3 cells) was determined as 82.1%. Moreover, the viability at 100 µM in [7] (hCMEC/D3 cells) turned out to be 80.1%.

For orientation: Ki means a dissociation constant, usually derived from enzyme kinetics or from competition with a known ligand. Turning to `Cl.c1ccc2c(c1)-c1ccccc1C2NC1CCCCC1` [Compound 3c, N-Cyclohexyl-9H-fluoren-9-amine hydrochloride], the IC50 at 24 h in [1] turned out to be 111 ± 10 µM. Further, the “potential of BBB permeation (in words)” value in series [2] is listed as “low potential to passively pass the BBB”. Also, the “CNS (+/−)” value in series [2] (setting [10]) is on record as “CNS −”. This molecule also showed a Papp in [3] of 12.3 ± 2.33 ×10⁻⁶ cm/s. The same molecule yielded a Ki in series [9] (nonlinear regression, substrate butyrylthiocholine) of 0.173 ± 0.025 µM. The type of inhibition entry in [9] (sum-of-squares F-test, Cornish–Bowden plot) is “competitive inhibition”. Besides, the inhibition at 10 µM in [4] is 17.2 ± 2.39%. The inhibition at 10 µM in series [5] was found to be 41 ± 3.56%. In [6], the “times less active compared to THA (hBChE inhibition)” value is reported as 20 and the IC50 turned out to be 0.47 ± 0.01 µM. Further, in series [7] (hCMEC/D3 cells), the viability at 50 µM came out at 93.4% and the viability at 100 µM turned out to be 82.9%.
